Consider two molecules from US20180153995A1, “USE OF ANTIMICROBIAL POLYMERS FOR RE-SENSITIZATION OF MICROORGANISMS UPON EMERGENCE OF RESISTANCE TO ANTI-MICROBIAL AGENTS” (Technion Research & Development Foundation Limited, priority 2008, published 2018).

“And” between values parts separate entries of the source, which are not always exact repeats. Identical values can stand only once. Like-named read-outs stand apart in the source and are kept apart here.

The test system of experiment [1] is E. coli N282 (L4 mutation). Format: cell-based, Escherichia coli. The following applies: E. coli N282 L4 mutation.
Experimental: MICs were determined by microdilution susceptibility testing in 96-well plates (by Nunc) using inocula of 10^5 bacteria per ml. Cell populations were evaluated by optical density measurements at 620 nm and were calibrated against a set of standards. Hundred (100) μl of a bacterial suspension were added to 100 μl of culture medium (control) or to 100 μl of culture medium containing various polymer concentrations in 2-fold serial dilutions. Inhibition of proliferation was determined by optical density measurements at 620 nm after an incubation period of 24 hours at 37° C.
Experiment [2] has as its system S. aureus ATCC 29213. Briefly: microbe, parasite or virus in culture. The following applies: Staphylococcus aureus, ATCC29213, read-out: Oxacillin's MIC. Here is the method:
In parallel, MIC evolution was compared concomitantly for each new sub-culture, using bacteria harvested from control wells (wells cultured without antimicrobial agent from the previous sub-culture). The relative MIC was calculated for each experiment from the ratio of MIC obtained for subculture “n” to that obtained for first-time exposure.
The relative MIC was determined as the normalized ratio of the MIC obtained for a given subculture to the MIC of the control.
MICs were determined by microdilution susceptibility testing in 96-well plates using inocula of 10^5 bacteria per ml. Cell populations were evaluated by optical density measurements at 600 nm and were calibrated against a set of standards.
In parallel, MIC evolution was compared concomitantly for each new generation, using bacteria harvested from control wells (wells cultured without antimicrobial agent from the previous generation). The relative MIC was calculated for each experiment from the ratio of MIC obtained for subculture “n” to that obtained for first-time exposure. […] MICs were determined by microdilution susceptibility testing in 96-well plates. Cell populations were evaluated by optical density measurements at 600 nm and were calibrated against a set of standards.

In experiment [3] the test system is MRSA 15903. Briefly: Sub-MIC time-kill curves (CFU counts). Format: cell-based, Staphylococcus aureus. Here is the method: At the specified time points of incubation (37° C. under shaking), cultures were subjected to serial 10-fold dilutions (up to 10^6) by adding 50 μl of sample to 450 μl saline (0.85% NaCl). Cell counts were determined using the drop plate method (three 20-μl drops onto LB-agar plates). Plates were incubated at 37° C. and colonies were counted for the calculation after incubation for 24 hours.

Experiment [4] concerns E. coli CI14213. Format: cell-based, Escherichia coli. The method, boiled down:
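Using microdilution susceptibility testing, cultures at 10^5 cells/ml were exposed for 24 h at 37 °C to twofold-diluted polymer. Optical density (620 nm) defined the MIC.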

Turning to `CC[C@H]1OC(=O)[C@H](C)[C@@H](O[C@H]2C[C@@](C)(OC)[C@@H](O)[C@H](C)O2)[C@H](C)[C@@H](O[C@@H]2O[C@H](C)C[C@H](N(C)C)[C@H]2O)[C@](C)(O)C[C@@H](C)C(=O)[C@H](C)[C@@H](O)[C@]1(C)O` [Erythromycin, erythromycin], the “Antibiotic MIC” value in experiment [1] (+¼ MIC C12K(NC8K)5NH2) was 512 µg/mL; in experiment [1] (+¼ MIC C12K(NC8K)7NH2), 512 µg/mL; in experiment [1] (+½ MIC C12K(NC8K)5NH2) it was 8 to 16 µg/mL; in experiment [1] (+⅓ MIC C12K(NC8K)7NH2), 512 µg/mL; in experiment [1] (no OAK, Table 18), 512 µg/mL; in experiment [1] (no OAK, Table 19) it was 512 µg/mL.
Turning to `Cc1onc(-c2ccccc2)c1C(=O)N[C@@H]1C(=O)N2[C@@H]1SC(C)(C)[C@@H]2C(=O)O` [Oxacillin, oxacillin], the MIC in experiment [2] is 0.28 µM and 0.125 µg/mL. Besides, the “reduction of bacterial counts compared to the most active single agent” value in experiment [3] (24 hours, oxacillin 0.78 μM + NC12(KNC12K)2NH2 2.1 μM) is listed as 4.7 log10 CFU/ml. The “surviving organisms below the starting inoculum” value in experiment [3] (oxacillin 0.78 μM + NC12(KNC12K)2NH2 2.1 μM) came to 0.76 log10 CFU/ml. For the same molecule, in experiment [3] (sub-MIC time-kill, single agent), the “bactericidal activity, agent alone” value is “no bactericidal activity”. Also, in experiment [4] (E. coli CI14213, 24 hours incubation), the “activity of oxacillin alone” value was “inactive”. Also, the “concentration up to which E. coli is insensitive to oxacillin” value in experiment [4] (E. coli, oxacillin alone) is above 512 µg/mL.
